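Results reflect a 48-hour exposure of cells in 96-well plates to compound at five concentrations. GI50 marks 50% less growth.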 Activity calls are given as the source filed them. Cut-off read from the data, not from the text of the source: active = GI50 up to about 1.1 µM and inactive = higher.
Legend:
Assay in all cases: NCI-60 cell line screen, 48 h
[1] = system: LXFL 529
[2] = system: SR
[3] = system: NCI-H460
[4] = system: OVCAR-3
[5] = system: SN12C
[6] = system: HT-29
[7] = system: SF-295
[8] = system: M19-MEL
[9] = system: HCT-116
[10] = system: XF498
[11] = system: OVCAR-5
[12] = system: SNB-19
[13] = system: HOP-62
[14] = system: SW-620
[15] = system: NCI-H23
[16] = system: SF-268
[17] = system: SF-539
[18] = system: RPMI-8226
[19] = system: RXF 631
[20] = system: TK-10
[21] = system: U-251
[22] = system: OVCAR-8
[23] = system: SNB-78
[24] = system: SK-OV-3
[25] = system: A498
[26] = system: CCRF-CEM
[27] = system: Malme-3M
[28] = system: SK-MEL-2
[29] = system: IGROV-1
[30] = system: COLO 205
[31] = system: UACC-62
[32] = system: HOP-18
[33] = system: DLD-1
[34] = system: DMS-114
[35] = system: EKVX
[36] = system: OVCAR-4
[37] = system: MOLT-4
[38] = system: KM-20L2
[39] = system: NCI-H522
[40] = system: CAKI-1
[41] = system: HCT-15
[42] = system: ACHN
[43] = system: A549
[44] = system: HL-60
[45] = system: 786-0
[46] = system: SK-MEL-5
[47] = system: LOX IMVI
[48] = system: HCC 2998
[49] = system: HOP-92
[50] = system: SK-MEL-28
[51] = system: SNB-75
[52] = system: K562
[53] = system: KM12
[54] = system: NCI-H226
[55] = system: M14
[56] = system: UO-31
[57] = system: UACC-257

O=C1Cc2ccccc2N1c1c(Cl)cccc1Cl
GI50 [1]: 87.7 µM (inactive)
GI50 [2]: 25.4 µM (inactive)
GI50 [3]: 97.5 µM (inactive)
GI50 [4]: 57.1 µM (inactive)
GI50 [5]: 89.1 µM (inactive)
GI50 [6]: 34.3 µM (inactive)
GI50 [7]: 38.4 µM (inactive)
GI50 [8]: 40.6 µM (inactive)
GI50 [9]: 45.6 µM (inactive)
GI50 [10]: 21.6 µM (inactive)
GI50 [11]: > 100 µM (inactive)
GI50 [12]: 79.1 µM (inactive)
GI50 [13]: > 100 µM (inactive)
GI50 [14]: 38.6 µM (inactive)
GI50 [15]: 52 µM (inactive)
GI50 [16]: 71 µM (inactive)
GI50 [17]: 81.3 µM (inactive)
GI50 [18]: 19.6 µM (inactive)
GI50 [19]: > 100 µM (inactive)
GI50 [20]: 98.4 µM (inactive)
GI50 [21]: 63.7 µM (inactive)
GI50 [22]: 93.3 µM (inactive)
GI50 [23]: 74.5 µM (inactive)
GI50 [24]: 0.424 µM (active)
GI50 [25]: 50.8 µM (inactive)
GI50 [26]: 32.9 µM (inactive)
GI50 [27]: 56.8 µM (inactive)
GI50 [28]: 28.5 µM (inactive)
GI50 [29]: 43.4 µM (inactive)
GI50 [30]: 42.3 µM (inactive)
GI50 [31]: 40.2 µM (inactive)
GI50 [32]: > 100 µM (inactive)
GI50 [33]: 47.9 µM (inactive)
GI50 [34]: 29.1 µM (inactive)
GI50 [35]: 63.5 µM (inactive)
GI50 [36]: 48 µM (inactive)
GI50 [37]: 22.6 µM (inactive)
GI50 [38]: 30.2 µM (inactive)
GI50 [39]: 24.6 µM (inactive)
GI50 [40]: 61.1 µM (inactive)
GI50 [41]: 46.9 µM
GI50 [42]: 70.1 µM (inactive)
GI50 [43]: 50.2 µM (inactive)
GI50 [44]: 15.3 µM (inactive)
GI50 [45]: 92.5 µM (inactive)
GI50 [46]: 32.8 µM (inactive)
GI50 [47]: 49.5 µM (inactive)
GI50 [48]: 76.7 µM (inactive)
GI50 [49]: 50.2 µM (inactive)
GI50 [50]: 54 µM (inactive)
GI50 [51]: 27.7 µM (inactive)
GI50 [52]: 21.3 µM (inactive)
GI50 [53]: 31.8 µM (inactive)
GI50 [54]: 37.9 µM (inactive)
GI50 [55]: 71 µM (inactive)
GI50 [56]: 24.3 µM (inactive)
GI50 [57]: 39.6 µM (inactive)

Reference: ChEMBL document CHEMBL1201862, “PubChem BioAssay data set” (2004)
